Measurements: the supplement of paper PMC10307832

Columns and labels:
Assay in all cases: relative viability (nuclei count vs DMSO), 5 days (fraction); higher = more cells survive
NCI-H1944 = test system: NCI-H1944
In short: (§1)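 Lung cancer cell lines were pin-tool dosed in 1536-well plates on the day after seeding, with either a lone drug or a fixed anchor-drug dose plus five library-drug doses (not always all listed) in √10 steps. Nuclei were counted on 4× images after 5 days. Relative viability is the ratio of treated-well to vehicle-well nuclei counts, with each value a median of duplicate plates.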

NCI-H650 = test system: NCI-H650
In short: as §1

NCI-H2023 = test system: NCI-H2023
In short: as §1

NCI-H1793 = test system: NCI-H1793
In short: as §1

H3255 = test system: H3255
In short: as §1

EMC-BAC-2 = test system: EMC-BAC-2
In short: as §1

HCC-44 = test system: HCC-44
In short: as §1

NCI-H2405 = test system: NCI-H2405
In short: as §1

LU99A = test system: LU99A
In short: as §1

SK-MES-1 = test system: SK-MES-1
In short: as §1

NCI-H1651 = test system: NCI-H1651
In short: as §1

Q: O=c1cc(N2CCOCC2)oc2c(-c3cccc4c3sc3ccccc34)cccc12 + O=C(c1cc(Cc2n[nH]c(=O)c3ccccc23)ccc1F)N1CCN(C(=O)C2CC2)CC1 [Olaparib] (partner 8 µM) was tested. Which relative viability (NCI-H1944; first compound 0.01 µM) did it give?
A: The relative viability was 0.438.

Q: And the relative viability (NCI-H1944; first compound 0.03162 µM)?
A: The relative viability was 0.406.

Q: And the relative viability (NCI-H1944; first compound 0.1 µM)?
A: The relative viability was 0.4.

Q: And the relative viability (NCI-H1944; first compound 0.3162 µM)?
A: Its relative viability is 0.384.

Q: What about the relative viability (NCI-H1944; first compound 1 µM) of the same compound?
A: Its relative viability is 0.393.

Q: And the relative viability (NCI-H650; first compound 0.01 µM)?
A: Its relative viability is 0.424.

Q: What about the relative viability (NCI-H650; first compound 0.03162 µM) of the same compound?
A: Its relative viability is 0.38.

Q: And the relative viability (NCI-H650; first compound 0.3162 µM)?
A: The relative viability was 0.381.

Q: And the relative viability (NCI-H650; first compound 1 µM)?
A: Its relative viability is 0.4.

Q: And the relative viability (NCI-H2023; first compound 0.01 µM)?
A: Its relative viability is 0.514.

Q: What about the relative viability (NCI-H2023; first compound 0.03162 µM) of the same compound?
A: Its relative viability is 0.471.

Q: And the relative viability (NCI-H2023; first compound 0.1 µM)?
A: Its relative viability is 0.491.

Q: And the relative viability (NCI-H2023; first compound 0.3162 µM)?
A: The relative viability was 0.513.

Q: And the relative viability (NCI-H2023; first compound 1 µM)?
A: The relative viability was 0.468.

Q: What about the relative viability (NCI-H1793; first compound 0.01 µM) of the same compound?
A: Its relative viability is 0.77.

Q: And the relative viability (NCI-H1793; first compound 0.03162 µM)?
A: The relative viability was 0.857.

Q: What about the relative viability (NCI-H1793; first compound 0.1 µM) of the same compound?
A: Its relative viability is 0.928.

Q: And the relative viability (NCI-H1793; first compound 0.3162 µM)?
A: The relative viability was 0.657.

Q: And the relative viability (NCI-H1793; first compound 1 µM)?
A: Its relative viability is 0.738.

Q: What about the relative viability (H3255; first compound 0.01 µM) of the same compound?
A: Its relative viability is 0.544.

Q: What about the relative viability (H3255; first compound 0.03162 µM) of the same compound?
A: The relative viability was 0.517.

Q: What about the relative viability (H3255; first compound 0.1 µM) of the same compound?
A: Its relative viability is 0.567.

Q: And the relative viability (H3255; first compound 0.3162 µM)?
A: Its relative viability is 0.512.

Q: What about the relative viability (H3255; first compound 1 µM) of the same compound?
A: The relative viability was 0.53.

Q: What about the relative viability (EMC-BAC-2; first compound 0.01 µM) of the same compound?
A: The relative viability was 0.486.

Q: What about the relative viability (EMC-BAC-2; first compound 0.03162 µM) of the same compound?
A: Its relative viability is 0.507.

Q: What about the relative viability (EMC-BAC-2; first compound 0.1 µM) of the same compound?
A: Its relative viability is 0.548.

Q: What about the relative viability (EMC-BAC-2; first compound 0.3162 µM) of the same compound?
A: The relative viability was 0.412.

Q: What about the relative viability (EMC-BAC-2; first compound 1 µM) of the same compound?
A: The relative viability was 0.489.

Q: And the relative viability (HCC-44; first compound 0.01 µM)?
A: Its relative viability is 1.01.

Q: What about the relative viability (HCC-44; first compound 0.03162 µM) of the same compound?
A: The relative viability was 0.909.

Q: And the relative viability (HCC-44; first compound 0.1 µM)?
A: The relative viability was 0.917.

Q: What about the relative viability (HCC-44; first compound 0.3162 µM) of the same compound?
A: Its relative viability is 0.973.

Q: And the relative viability (HCC-44; first compound 1 µM)?
A: The relative viability was 0.987.

Q: What about the relative viability (NCI-H2405; first compound 0.01 µM) of the same compound?
A: The relative viability was 0.952.

Q: And the relative viability (NCI-H2405; first compound 0.03162 µM)?
A: The relative viability was 0.912.

Q: What about the relative viability (NCI-H2405; first compound 0.1 µM) of the same compound?
A: The relative viability was 0.945.

Q: And the relative viability (NCI-H2405; first compound 0.3162 µM)?
A: Its relative viability is 0.832.

Q: And the relative viability (NCI-H2405; first compound 1 µM)?
A: Its relative viability is 0.93.

Q: What about the relative viability (LU99A; first compound 0.01 µM) of the same compound?
A: Its relative viability is 0.259.

Q: What about the relative viability (LU99A; first compound 0.03162 µM) of the same compound?
A: The relative viability was 0.273.

Q: What about the relative viability (LU99A; first compound 0.1 µM) of the same compound?
A: Its relative viability is 0.277.

Q: And the relative viability (LU99A; first compound 0.3162 µM)?
A: Its relative viability is 0.27.

Q: What about the relative viability (LU99A; first compound 1 µM) of the same compound?
A: The relative viability was 0.278.

Q: What about the relative viability (SK-MES-1; first compound 0.01 µM) of the same compound?
A: The relative viability was 0.68.

Q: What about the relative viability (SK-MES-1; first compound 0.03162 µM) of the same compound?
A: Its relative viability is 0.71.

Q: And the relative viability (SK-MES-1; first compound 0.1 µM)?
A: The relative viability was 0.808.

Q: What about the relative viability (SK-MES-1; first compound 0.3162 µM) of the same compound?
A: The relative viability was 0.598.

Q: What about the relative viability (SK-MES-1; first compound 1 µM) of the same compound?
A: Its relative viability is 0.634.

Q: And the relative viability (NCI-H1651; first compound 0.01 µM)?
A: The relative viability was 0.19.

Q: What about the relative viability (NCI-H1651; first compound 0.03162 µM) of the same compound?
A: The relative viability was 0.188.
